Earlier results as cited in US20080248506A1, “Method of Monitoring Anti-Tumor Activity of an Hdac Inhibitor” (Pharmacyclics, Inc., priority 2004, published 2008).

Key:
H2AX = conditions: myeloid leukemia cell lines (HL60, K562, MDS92L; n=3)

SMILES | H2AX phosphorylation (H2AX) | γ-H2AX accumulation (γ-H2AX; compound by itself, no irradiation) | number of irradiated cells that express γ-H2AX foci (γ-H2AX; with irradiation)
CC(/C=C/C(=O)NO)=C\[C@@H](C)C(=O)c1ccc(N(C)C)cc1 [Trichostatin] | cause H2AX phosphorylation | – | –
Nc1ccccc1NC(=O)c1ccc(CNC(=O)OCc2cccnc2)cc1 [MS-275] | – | does not produce γ-H2AX accumulation | increase the number of irradiated cells that express γ-H2AX foci
